{"source": "paper PMC8242077", "about": "“Allosteric drug transport mechanism of multidrug transporter AcrB” (Nature Communications, 2021)", "molecular_target": "T1, AcrB (Escherichia coli, UniProt P31224)", "T1 construct": "full-length, His-tagged (pET24acrBHis), from E. coli C43(DE3) delta-acrAB; homotrimer, DDM-solubilised; crystallised with DARPins", "T1 sequence (P31224 whole entry)": "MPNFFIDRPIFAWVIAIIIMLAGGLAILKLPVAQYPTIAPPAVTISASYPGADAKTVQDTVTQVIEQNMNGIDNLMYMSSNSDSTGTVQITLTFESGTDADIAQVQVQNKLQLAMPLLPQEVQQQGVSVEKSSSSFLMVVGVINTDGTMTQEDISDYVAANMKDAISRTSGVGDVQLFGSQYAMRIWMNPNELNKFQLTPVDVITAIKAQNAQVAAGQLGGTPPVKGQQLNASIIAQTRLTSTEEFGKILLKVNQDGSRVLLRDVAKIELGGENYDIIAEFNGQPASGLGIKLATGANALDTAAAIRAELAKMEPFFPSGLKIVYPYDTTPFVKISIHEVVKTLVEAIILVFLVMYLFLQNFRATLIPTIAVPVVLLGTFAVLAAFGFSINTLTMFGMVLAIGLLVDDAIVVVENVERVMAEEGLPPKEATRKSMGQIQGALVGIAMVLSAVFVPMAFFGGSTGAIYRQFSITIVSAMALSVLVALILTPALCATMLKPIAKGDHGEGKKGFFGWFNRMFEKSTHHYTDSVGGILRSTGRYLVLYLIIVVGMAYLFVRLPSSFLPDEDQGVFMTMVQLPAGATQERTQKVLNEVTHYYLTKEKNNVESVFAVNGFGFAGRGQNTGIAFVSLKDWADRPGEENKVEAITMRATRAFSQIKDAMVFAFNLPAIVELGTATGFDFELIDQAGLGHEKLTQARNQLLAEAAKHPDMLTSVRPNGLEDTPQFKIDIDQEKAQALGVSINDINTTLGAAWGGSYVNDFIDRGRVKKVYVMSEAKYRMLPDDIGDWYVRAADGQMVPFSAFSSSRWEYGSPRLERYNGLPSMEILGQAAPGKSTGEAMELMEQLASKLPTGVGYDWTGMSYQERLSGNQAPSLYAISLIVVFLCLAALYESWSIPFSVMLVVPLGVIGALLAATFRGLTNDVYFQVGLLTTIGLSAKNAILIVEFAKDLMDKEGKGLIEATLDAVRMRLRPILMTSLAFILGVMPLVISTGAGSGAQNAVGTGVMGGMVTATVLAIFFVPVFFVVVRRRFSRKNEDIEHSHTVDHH", "test": "X-ray co-crystal structure", "format": "binding", "conditions": "DARPin chaperone"}
{"smiles": "CO[C@H]1/C=C/O[C@@]2(C)Oc3c(C)c(O)c4c(O)c(c(C=O)c(O)c4c3C2=O)NC(=O)/C(C)=C\\C=C\\[C@H](C)[C@H](O)[C@@H](C)[C@@H](O)[C@@H](C)[C@H](OC(C)=O)[C@@H]1C", "note": "[3-formylrifamycin SV]", "values": [{"measurement": "X-ray co-crystal structure", "setting": "access pocket of L protomer, crystallised with 3 mM rifampicin", "value": "co-crystal AcrB/3-formylrifamycin SV (3-FOR) structure"}]}
{"smiles": "CC(=O)O[C@H]1C[C@@]2(C)[C@@H](C[C@@H](O)[C@H]3[C@@]4(C)CC[C@@H](O)[C@@H](C)[C@@H]4CC[C@@]32C)/C1=C(\\CCC=C(C)C)C(=O)O", "note": "[fusidic acid]", "values": [{"measurement": "X-ray co-crystal structure", "setting": "T protomer: TMD-BP, TM1/TM2 groove and TM7/TM8 groove, co-crystallised with 1 mM each fusidic acid, erythromycin, linezolid, oxacillin", "value": "co-structure with FUA bound to a deep concave crevice surrounded by TM2, TM4, TM10-12"}]}
